Experimental findings from patent US8648081B2 (Eli Lilly and Company, priority 2011, dated 2014) are described below.

Usually mortality stands for the share of the test organisms that died.

The assay concerns Lone star tick larvae (Amblyomma americanum). Put plainly: In Vitro Larval Immersion Microassay (LIM). The settings on record: read-out: % Efficacy (percent larval mortality). The protocol:
In Vitro Larval Immersion Microassay (LIM)
The larval immersion microassay may be conducted as described in White, et al., J. Med. Entomol. […] Briefly, experimental test articles are formulated in dimethylsulfoxide (DMSO) to prepare a stock solution at a concentration of 10 mM. […] Approximately 30-50 Lone star tick larvae (Amblyomma americanum) are submerged into each well containing experimental test articles. After a 30 minute immersion period, larvae are removed with a wide-bore pipette tip in 0.05 ml of fluid, dispensed into a commercial paper tissue biopsy bag which is sealed at the top with a plastic dialysis clip, inverted and allowed to air dry for 60 minutes. Bags containing larvae are then incubated at approximately 27 degrees Celsius and >90% relative humidity. After 24 hours, bags are opened, live and dead larvae are counted and percent larval mortality is calculated as follows: % Efficacy=(# dead larvae)/(# total larvae)×100.

For `O=C(N[C@@H]1CCNC1=O)c1sc(C2=NOC(c3cc(Cl)cc(Cl)c3)(C(F)(F)F)C2)c2c1CCCC2` (stereo partly drawn) [Example 32, 3-(5-(3,5-dichlorophenyl)-5-(trifluoromethyl)-4,5-dihydroisoxazol-3-yl)-N—((R)-2-oxopyrrolidin-3-yl)-4,5,6,7-tetrahydrobenzo[c]thiophene-1-carboxamide], the mortality at 300 µM is not below 80%.

As for `O=C(CNC(=O)c1sc(C2=NOC(c3cc(Cl)cc(Cl)c3)(C(F)(F)F)C2)c2c1CCC2)NCC(F)(F)F` (stereo not shown) [Example 36, 3-(5-(3,5-dichloro-phenyl)-5-(trifluoro-methyl)-4,5-dihydro-isoxazol-3-yl)-N-(2-oxo-2-(2,2,2-trifluoroethylamino)ethyl)-5,6-dihydro-4H-cyclopenta[c] thiophene-1-carboxamide], the mortality at 300 µM is not below 80%.

Consider `O=C(NC1CS(=O)(=O)C1)c1sc(C2=NOC(c3cc(Cl)cc(Cl)c3)(C(F)(F)F)C2)c2c1CCCC2` (stereo not shown) [Example 37, 3-[5-(3,5-Dichloro-phenyl)-5-trifluoro-methyl-4,5-dihydro-isoxazol-3-yl]-4,5,6,7-tetrahydro-benzo[c] thiophene-1-carboxylic acid (1,1-dioxo-thietan-3-yl)-amide], for which the mortality at 300 µM was not below 80%.

Consider `O=C1CCCC(NC(=O)c2sc(C3=NOC(c4cc(Cl)cc(Cl)c4)(C(F)(F)F)C3)c3c2CCCC3)C1` (stereo not shown) [Example 38, 3-(5-(3,5-dichloro-phenyl)-5-(trifluoro-methyl)-4,5-dihydro-isoxazol-3-yl)-N-(3-oxocyclohexyl)-4,5,6,7-tetrahydrobenzo [c]thiophene-1-carboxamide], for which the mortality at 300 µM is not below 80%.

`O=C(NC1CCS(=O)(=O)CC1)c1sc(C2=NOC(c3cc(Cl)cc(Cl)c3)(C(F)(F)F)C2)c2c1CCCC2` (stereo not shown) [Example 39, 3-[5-(3,5-Dichloro-phenyl)-5-trifluoro-methyl-4,5-dihydro-isoxazol-3-yl]-4,5,6,7-tetrahydro-benzo [c]thiophene-1-carboxylic acid (1,1-dioxo-hexahydro-116-thiopyran-4-yl)-amide]: the mortality at 300 µM is not below 80%.

In the case of `O=C(NC1CCN(CC(F)(F)F)C1=O)c1sc(C2=NOC(c3cc(Cl)cc(Cl)c3)(C(F)(F)F)C2)c2c1CCCC2` (stereo not shown) [Example 40, 3-[5-(3,5-Dichloro-phenyl)-5-trifluoro-methyl-4,5-dihydro-isoxazol-3-yl]-4,5,6,7-tetrahydro-benzo[c] thiophene-1-carboxylic acid [2-oxo-1-(2,2,2-trifluoro-ethyl)-pyrrolidin-3-yl]-amide], the mortality at 300 µM is not below 80%.

Consider `O=C(N[C@@H]1CCNC1=O)c1sc(C2=NOC(c3cc(Cl)cc(Cl)c3)(C(F)(F)F)C2)c2c1CCC2` (stereo partly drawn) [Example 41, 3-(5-(3,5-dichloro-phenyl)-5-(trifluoro-methyl)-4,5-dihydro-isoxazol-3-yl)-N-((R)-2-oxopyrrolidin-3-yl)-5,6-dihydro-4H-cyclopenta[c] thiophene-1-carboxamide], for which the mortality at 300 µM is not below 80%.

For the compound `N#CCNC(=O)CNC(=O)c1sc(C2=NOC(c3cc(Cl)cc(Cl)c3)(C(F)(F)F)C2)c2c1CCC2` (stereo not shown) [Example 42, N-(2-(cyanomethyl-amino)-2-oxoethyl)-3-(5-(3,5-dichlorophenyl)-5-(trifluoromethyl)-4,5-dihydroisoxazol-3-yl)-5,6-dihydro-4H-cyclopenta[c]thiophene-1-carboxamide], the mortality at 300 µM is not below 80%.

Turning to `C#CCNC(=O)CNC(=O)c1sc(C2=NOC(c3cc(Cl)cc(Cl)c3)(C(F)(F)F)C2)c2c1CCC2` (stereo not shown) [Example 43, 3-(5-(3,5-dichloro-phenyl)-5-(trifluoro-methyl)-4,5-dihydro-isoxazol-3-yl)-N-(2-oxo-2-(prop-2-ynylamino)ethyl)-5,6-dihydro-4H-cyclopenta[c] thiophene-1-carboxamide], the mortality at 300 µM is not below 80%.

`O=C(CNC(=O)c1sc(C2=NOC(c3cc(Cl)c(Cl)c(Cl)c3)(C(F)(F)F)C2)c2c1CCCC2)NCC(F)(F)F` (stereo not shown) [Example 44, N-(2-oxo-2-(2,2,2-trifluoroethylamino)ethyl)-3-(5-(3,4,5-trichlorophenyl)-5-(trifluoromethyl)-4,5-dihydroisoxazol-3-yl)-4,5,6,7-tetrahydrobenzo [c]thiophene-1-carboxamide]: the mortality at 300 µM was not below 80%.

Take `O=C(N[C@@H]1CCNC1=O)c1sc(C2=NOC(c3cc(Cl)c(Cl)c(Cl)c3)(C(F)(F)F)C2)c2c1CCCC2` (stereo partly drawn) [Example 45, N-((R)-2-oxopyrrolidin-3-yl)-3-(5-(3,4,5-trichlorophenyl)-5-(trifluoromethyl)-4,5-dihydroisoxazol-3-yl)-4,5,6,7-tetrahydrobenzo [c]thiophene-1-carboxamide]: the mortality at 300 µM was not below 80%.

Take `N#CCNC(=O)CNC(=O)c1sc(C2=NOC(c3cc(Cl)c(Cl)c(Cl)c3)(C(F)(F)F)C2)c2c1CCCC2` (stereo not shown) [Example 46, N-(2-(cyanomethyl-amino)-2-oxoethyl)-3-(5-(3,4,5-trichloro-phenyl)-5-(trifluoro-methyl)-4,5-dihydro-isoxazol-3-yl)-4,5,6,7-tetrahydrobenzo [c]thiophene-1-carboxamide]: the mortality at 300 µM is not below 80%.

Regarding `C#CCNC(=O)CNC(=O)c1sc(C2=NOC(c3cc(Cl)c(Cl)c(Cl)c3)(C(F)(F)F)C2)c2c1CCCC2` (stereo not shown) [Example 47, N-(2-oxo-2-(prop-2-ynylamino)ethyl)-3-(5-(3,4,5-trichlorophenyl)-5-(trifluoromethyl)-4,5-dihydroisoxazol-3-yl)-4,5,6,7-tetrahydro-benzo[c]thiophene-1-carboxamide], the mortality at 300 µM is not below 80%.

On to `O=C(CNC(=O)c1sc(C2=NOC(c3cc(Cl)c(F)c(Cl)c3)(C(F)(F)F)C2)c2c1CCCC2)NCC(F)(F)F` (stereo not shown) [Example 48, 3-(5-(3,5-dichloro-4-fluorophenyl)-5-(trifluoromethyl)-4,5-dihydroisoxazol-3-yl)-N-(2-oxo-2-(2,2,2-trifluoroethyl-amino)ethyl)-4,5,6,7-tetrahydrobenzo [c]thiophene-1-carboxamide], for which the mortality at 300 µM was not below 80%.

`O=C(N[C@@H]1CCNC1=O)c1sc(C2=NOC(c3cc(Cl)c(F)c(Cl)c3)(C(F)(F)F)C2)c2c1CCCC2` (stereo partly drawn) [Example 49, 3-(5-(3,5-dichloro-4-fluorophenyl)-5-(trifluoromethyl)-4,5-dihydroisoxazol-3-yl)-N-((R)-2-oxopyrrolidin-3-yl)-4,5,6,7-tetrahydro-benzo[c]thiophene-1-carboxamide]: the mortality at 300 µM was not below 80%.

Consider `N#CCNC(=O)CNC(=O)c1sc(C2=NOC(c3cc(Cl)c(F)c(Cl)c3)(C(F)(F)F)C2)c2c1CCCC2` (stereo not shown) [Example 50, N-(2-(cyanomethyl-amino)-2-oxoethyl)-3-(5-(3,5-dichloro-4-fluorophenyl)-5-(trifluoromethyl)-4,5-dihydroisoxazol-3-yl)-4,5,6,7-tetrahydrobenzo [c]thiophene-1-carboxamide], for which the mortality at 300 µM was not below 80%.

On to `C#CCNC(=O)CNC(=O)c1sc(C2=NOC(c3cc(Cl)c(F)c(Cl)c3)(C(F)(F)F)C2)c2c1CCCC2` (stereo not shown) [Example 51, 3-(5-(3,5-dichloro-4-fluorophenyl)-5-(trifluoromethyl)-4,5-dihydroisoxazol-3-yl)-N-(2-oxo-2-(prop-2-ynylamino)ethyl)-4,5,6,7-tetrahydro-benzo[c]thiophene-1-carboxamide], for which the mortality at 300 µM is not below 80%.

With `O=C(CNC(=O)c1sc(C2=NOC(c3cc(Cl)c(Cl)c(Cl)c3)(C(F)(F)F)C2)c2c1CCC2)NCC(F)(F)F` (stereo not shown) [Example 52, N-(2-oxo-2-(2,2,2-trifluoroethylamino)ethyl)-3-(5-(3,4,5-trichlorophenyl)-5-(trifluoromethyl)-4,5-dihydroisoxazol-3-yl)-5,6-dihydro-4H-cyclopenta[c] thiophene-1-carboxamide], the mortality at 300 µM was not below 80%.

Take `O=C(N[C@@H]1CCNC1=O)c1sc(C2=NOC(c3cc(Cl)c(Cl)c(Cl)c3)(C(F)(F)F)C2)c2c1CCC2` (stereo partly drawn) [Example 53, N-((R)-2-oxopyrrolidin-3-yl)-3-(5-(3,4,5-trichlorophenyl)-5-(trifluoromethyl)-4,5-dihydroisoxazol-3-yl)-5,6-dihydro-4H-cyclopenta[c] thiophene-1-carboxamide]: the mortality at 300 µM is not below 80%.

`N#CCNC(=O)CNC(=O)c1sc(C2=NOC(c3cc(Cl)c(Cl)c(Cl)c3)(C(F)(F)F)C2)c2c1CCC2` (stereo not shown) [Example 54, N-(2-(cyanomethyl-amino)-2-oxoethyl)-3-(5-(3,4,5-trichloro-phenyl)-5-(trifluoro-methyl)-4,5-dihydro-isoxazol-3-yl)-5,6-dihydro-4H-cyclo-penta[c]thiophene-1-carboxamide]: the mortality at 300 µM is not below 80%.

For `C#CCNC(=O)CNC(=O)c1sc(C2=NOC(c3cc(Cl)c(Cl)c(Cl)c3)(C(F)(F)F)C2)c2c1CCC2` (stereo not drawn) [Example 55, N-(2-oxo-2-(prop-2-ynylamino)ethyl)-3-(5-(3,4,5-trichlorophenyl)-5-(trifluoromethyl)-4,5-dihydroisoxazol-3-yl)-5,6-dihydro-4H-cyclo-penta[c]thiophene-l-carboxamide], the mortality at 300 µM is not below 80%.

With `O=C(NC1CCN(CC(F)(F)F)C1=O)c1sc(C2=NOC(c3cc(Cl)c(Cl)c(Cl)c3)(C(F)(F)F)C2)c2c1CCC2` (stereo not shown) [Example 56, N-(2-oxo-1-(2,2,2-trifluoroethyl)pyrrolidin-3-yl)-3-(5-(3,4,5-trichlorophenyl)-5-(trifluoromethyl)-4,5-dihydroisoxazol-3-yl)-5,6-dihydro-4H-cyclopenta[c] thiophene-1-carboxamide], the mortality at 300 µM was not below 80%.
